Data as given in ChEMBL document CHEMBL1201862, “PubChem BioAssay data set” (2004).
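The compound was tested at five concentrations on cells cultured in 96-well plates, with a 48-hour exposure period. At the GI50, growth is halved.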 Calls of active or inactive are those of the source. No stated cut-off is given here; in the data, active = GI50 up to about 1.1 µM and inactive = higher.

Legend:
Experiment in all cases: growth of human tumour cells (NCI), 48 h
NCI-H460 = tested on: NCI-H460
HOP-62 = tested on: HOP-62
U-251 = tested on: U-251
SK-MEL-5 = tested on: SK-MEL-5
HL-60 = tested on: HL-60
K562 = tested on: K562
HOP-92 = tested on: HOP-92
ACHN = tested on: ACHN
SF-295 = tested on: SF-295
SNB-19 = tested on: SNB-19
DU-145 = tested on: DU-145
SF-539 = tested on: SF-539
T47D = tested on: T47D
Hs-578T = tested on: Hs-578T
OVCAR-4 = tested on: OVCAR-4
RXF 393 = tested on: RXF 393
PC-3 = tested on: PC-3
TK-10 = tested on: TK-10
HCC 2998 = tested on: HCC 2998
RPMI-8226 = tested on: RPMI-8226

Measured: GI50

COC(=O)c1nn2ccc3ccccc3c2c1C(=O)OC
inactive: NCI-H460 > 100 µM | HOP-62 50.8 µM | U-251 > 100 µM | SK-MEL-5 37 µM | HL-60 21.3 µM | K562 58.7 µM | HOP-92 96.2 µM | ACHN > 100 µM | SF-295 > 100 µM | SNB-19 > 100 µM | DU-145 > 100 µM | SF-539 > 100 µM | T47D > 100 µM | Hs-578T > 100 µM | OVCAR-4 > 100 µM | RXF 393 59.2 µM | PC-3 47.8 µM | TK-10 > 100 µM

C/C(=N\O)c1ccc(OCc2cc(C(F)(F)F)cc(C(F)(F)F)c2)cc1
inactive: NCI-H460 23.4 µM | HOP-62 50.1 µM | U-251 34.4 µM | SK-MEL-5 50.9 µM | HL-60 4.13 µM | K562 33 µM | HOP-92 17.6 µM | ACHN 25.5 µM | SF-295 55.2 µM | SNB-19 64.1 µM | DU-145 > 100 µM | SF-539 60.5 µM | T47D 75.3 µM | HCC 2998 32.1 µM | Hs-578T 37.8 µM | OVCAR-4 53.8 µM | RXF 393 21.8 µM | PC-3 34.1 µM | TK-10 > 100 µM

Oc1ccc[nH]c1=[Se]
inactive: NCI-H460 41.8 µM | HOP-62 29.1 µM | U-251 32.7 µM | SK-MEL-5 39.4 µM | HL-60 > 100 µM | K562 36.2 µM | HOP-92 > 100 µM | ACHN 48.6 µM | SF-295 29.3 µM | SNB-19 85.9 µM | RPMI-8226 40.6 µM | DU-145 62.2 µM | SF-539 54.6 µM | T47D 22.4 µM | Hs-578T > 100 µM | RXF 393 > 100 µM | PC-3 > 100 µM | TK-10 55.3 µM

Cc1c2ccccc2c(C2C3C(=O)N(c4cccc5ccccc45)C(=O)C3ON2Cc2ccc(CC(N)=O)cc2)c2ccccc12 (centres undefined)
inactive: NCI-H460 13.5 µM | HOP-62 23 µM | U-251 19.8 µM | SK-MEL-5 10.5 µM | HL-60 16.1 µM | K562 15.7 µM | HOP-92 15.6 µM | ACHN 18.5 µM | SF-295 16.3 µM | SNB-19 19.6 µM | DU-145 18.9 µM | SF-539 12 µM | T47D 15 µM | Hs-578T 27.6 µM | OVCAR-4 19 µM | RXF 393 8.59 µM | PC-3 17.4 µM | TK-10 16.7 µM

COc1cc(/C=C2\N=C(c3ccccc3)N(c3ccc4c(c3)Sc3cc(N5C(=O)/C(=C/c6cc(OC)c(OC)c(OC)c6)N=C5c5ccccc5)ccc3N4)C2=O)cc(OC)c1OC
inactive: NCI-H460 31.3 µM | HOP-62 25.5 µM | U-251 21 µM | SK-MEL-5 16.5 µM | HL-60 26.9 µM | K562 21 µM | HOP-92 18.8 µM | ACHN 19 µM | SF-295 22.9 µM | SNB-19 21.2 µM | RPMI-8226 27.4 µM | DU-145 54.3 µM | T47D 25.2 µM | HCC 2998 21.2 µM | Hs-578T 21.8 µM | OVCAR-4 18.9 µM | RXF 393 20.7 µM | PC-3 19.6 µM | TK-10 16.9 µM

COc1ccc(C2c3cc4c(cc3OC(NNc3ccccc3)C2C)OCO4)cc1 (centres undefined)
inactive: NCI-H460 3.57 µM | HOP-62 3.5 µM | U-251 7.35 µM | SK-MEL-5 17.9 µM | HL-60 5.25 µM | K562 1.7 µM | HOP-92 19.5 µM | ACHN 1.93 µM | SF-295 2.08 µM | SNB-19 40.7 µM | RPMI-8226 4.47 µM | DU-145 5.52 µM | SF-539 2.36 µM | T47D 6.12 µM | HCC 2998 1.82 µM | Hs-578T 16.1 µM | RXF 393 8.51 µM | PC-3 4.8 µM | TK-10 8.97 µM

COc1ccc(CN(Cc2ccc(OC)cc2)C(=O)CC2(O)C=CCC2)cc1 (centres undefined)
inactive: NCI-H460 67.5 µM | HOP-62 > 100 µM | U-251 90.8 µM | SK-MEL-5 32.9 µM | HL-60 34.8 µM | K562 34 µM | HOP-92 > 100 µM | ACHN > 100 µM | SF-295 56.9 µM | SNB-19 71.9 µM | RPMI-8226 31.6 µM | DU-145 > 100 µM | SF-539 > 100 µM | T47D 39.4 µM | HCC 2998 69.2 µM | Hs-578T 48.4 µM | OVCAR-4 80 µM | PC-3 28 µM | TK-10 > 100 µM

c1nc(NCCc2c[nH]cn2)c2nc[nH]c2n1
inactive: NCI-H460 > 100 µM | HOP-62 > 100 µM | U-251 > 100 µM | SK-MEL-5 > 100 µM | HL-60 26.7 µM | K562 > 100 µM | HOP-92 > 100 µM | ACHN > 100 µM | SF-295 > 100 µM | SNB-19 > 100 µM | RPMI-8226 > 100 µM | DU-145 > 100 µM | SF-539 > 100 µM | T47D > 100 µM | Hs-578T > 100 µM | OVCAR-4 > 100 µM | RXF 393 > 100 µM | PC-3 > 100 µM | TK-10 > 100 µM

CCCCc1ccc(Nc2nc(S)c3[nH]cnc3n2)cc1
inactive: NCI-H460 33.3 µM | U-251 24.7 µM | SK-MEL-5 12.5 µM | HL-60 27.9 µM | K562 43.4 µM | HOP-92 32.4 µM | ACHN 23.1 µM | SF-295 25.1 µM | SNB-19 22.8 µM | RPMI-8226 44.5 µM | DU-145 35.5 µM | SF-539 20.3 µM | T47D 15.6 µM | HCC 2998 25.5 µM | Hs-578T 21.5 µM | OVCAR-4 23.9 µM | PC-3 29.7 µM | TK-10 20.6 µM

CCOC(=O)c1c(-c2ccccc2)nc2ccccc2c1O
inactive: NCI-H460 > 100 µM | HOP-62 > 100 µM | U-251 > 100 µM | SK-MEL-5 > 100 µM | HL-60 > 100 µM | K562 > 100 µM | HOP-92 > 100 µM | ACHN > 100 µM | SF-295 > 100 µM | SNB-19 > 100 µM | RPMI-8226 > 100 µM | DU-145 > 100 µM | T47D > 100 µM | HCC 2998 > 100 µM | Hs-578T > 100 µM | OVCAR-4 > 100 µM | RXF 393 > 100 µM | PC-3 > 100 µM | TK-10 > 100 µM

CCC1OC(=O)CC(O)C(C)C(OC2OC(C)CC(N(C)C)C2O)C(CC=O)CC(C)C(=O)/C=C/C2(C)OC2C1C (centres undefined)
inactive: NCI-H460 > 100 µM | HOP-62 25.2 µM | U-251 14.8 µM | SK-MEL-5 15.2 µM | HL-60 12.8 µM | K562 6.76 µM | HOP-92 27.9 µM | ACHN 19.6 µM | SF-295 29 µM | SNB-19 16.9 µM | RPMI-8226 27 µM | DU-145 23.2 µM | SF-539 6.62 µM | T47D 19.9 µM | HCC 2998 > 100 µM | Hs-578T 32.4 µM | RXF 393 17.2 µM | PC-3 26.6 µM
